Laboratory results from patent US12187723B2 (BRISTOL-MYERS SQUIBB COMPANY, priority 2019, dated 2025).

Molecular target: T1, human TLR7 (Homo sapiens, UniProt Q9NYK1)
T1 construct: host or cells: HEK-Blue cells
T1 sequence (Q9NYK1 27-1049): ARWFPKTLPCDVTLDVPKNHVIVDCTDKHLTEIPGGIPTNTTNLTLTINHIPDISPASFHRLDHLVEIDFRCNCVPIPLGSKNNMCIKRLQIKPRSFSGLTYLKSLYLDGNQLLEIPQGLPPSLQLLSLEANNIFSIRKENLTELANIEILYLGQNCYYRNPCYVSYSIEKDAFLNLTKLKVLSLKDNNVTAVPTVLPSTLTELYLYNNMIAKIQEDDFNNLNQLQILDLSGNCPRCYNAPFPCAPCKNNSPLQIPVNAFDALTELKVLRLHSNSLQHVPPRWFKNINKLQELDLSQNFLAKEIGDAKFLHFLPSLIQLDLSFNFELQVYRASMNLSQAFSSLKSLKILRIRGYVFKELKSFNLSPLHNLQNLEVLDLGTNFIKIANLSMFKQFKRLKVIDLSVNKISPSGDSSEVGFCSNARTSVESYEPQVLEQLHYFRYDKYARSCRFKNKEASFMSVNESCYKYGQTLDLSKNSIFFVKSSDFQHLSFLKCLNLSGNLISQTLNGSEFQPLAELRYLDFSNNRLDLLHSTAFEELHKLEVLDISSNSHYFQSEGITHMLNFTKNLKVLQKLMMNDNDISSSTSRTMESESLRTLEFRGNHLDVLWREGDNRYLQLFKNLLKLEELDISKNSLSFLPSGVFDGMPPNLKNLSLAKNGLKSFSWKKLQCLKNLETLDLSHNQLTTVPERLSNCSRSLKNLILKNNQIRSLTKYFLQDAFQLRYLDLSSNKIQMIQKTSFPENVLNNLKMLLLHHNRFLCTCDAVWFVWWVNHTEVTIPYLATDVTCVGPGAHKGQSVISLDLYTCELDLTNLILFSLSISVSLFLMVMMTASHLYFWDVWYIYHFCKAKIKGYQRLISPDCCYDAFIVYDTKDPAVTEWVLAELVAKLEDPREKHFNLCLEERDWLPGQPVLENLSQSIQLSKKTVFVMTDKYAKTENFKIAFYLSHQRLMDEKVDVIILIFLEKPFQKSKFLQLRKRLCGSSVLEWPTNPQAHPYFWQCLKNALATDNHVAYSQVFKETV
Experiment: TLR7 inhibition reporter assay (HEK-Blue SEAP)
Type: cell-based
Settings: HEK-Blue cells overexpressing human TLR7, gardiquimod 7.5 μM, 22 hour incubation
Procedure, shortened: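 SEAP readout via HEK-Blue Detection medium after 22 h at 37 °C, 5% CO2 defines inhibition, normalized between agonist-plus-DMSO wells and a reference inhibitor. Compound dose range 0.05 nM–50 μM; TLR7 cells at 15,000/well (gardiquimod), TLR8 at 20,000/well (R848).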

Row | Structure (SMILES) | IC50 [nM]
1 | Cc1cc2c(cc1-c1cc(C)c3ncnn3c1)[nH]c(=O)n2[C@@H]1CCCN(C2COC2)C1 [Example 18, (R)-6-methyl-5-(8-methyl-[1,2,4]triazolo[1,5-a]pyridin-6-yl)-1-(1-(oxetan-3-yl)piperidin-3-yl)-1,3-dihydro-2H-benzo[d]imidazol-2-one] | 409
2 | Cc1cc2c(cc1-c1cc(C)c3ncnn3c1)[nH]c(=O)n2[C@H]1CC[C@@H](N(C)C)CC1 [Example 19, 1-((1s,4s)-4-(dimethylamino)cyclohexyl)-6-methyl-5-(8-methyl-[1,2,4]triazolo[1,5-a]pyridin-6-yl)-1,3-dihydro-2H-benzo[d]imidazol-2-one] | 21.3
3 | CCN(CC)[C@H]1CC[C@@H](n2c(=O)[nH]c3cc(-c4cc(C)c5ncnn5c4)c(C)cc32)CC1 [Example 20, 1-((1s,4s)-4-(diethylamino)cyclohexyl)-6-methyl-5-(8-methyl-[1,2,4]triazolo[1,5-a]pyridin-6-yl)-1,3-dihydro-2H-benzo[d]imidazol-2-one] | 8.86
4 | CCN[C@H]1CC[C@@H](n2c(=O)[nH]c3cc(-c4cc(C)c5ncnn5c4)c(C)cc32)CC1 [Example 21, 1-((1s,4s)-4-(ethylamino)cyclohexyl)-6-methyl-5-(8-methyl-[1,2,4]triazolo[1,5-a]pyridin-6-yl)-1,3-dihydro-2H-benzo[d]imidazol-2-one] | 13.3
5 | Cc1cc2c(cc1-c1cc(C)c3ncnn3c1)[nH]c(=O)n2[C@H]1CC[C@H](N(C)C)CC1 [Example 23, 1-((1r,4r)-4-(dimethylamino)cyclohexyl)-6-methyl-5-(8-methyl-[1,2,4]triazolo[1,5-a]pyridin-6-yl)-1,3-dihydro-2H-benzo[d]imidazol-2-one] | 37.7
6 | Cc1cc2c(cc1-c1cc(C)c3ncnn3c1)[nH]c(=O)n2[C@H]1CC[C@H](NC(C)C)CC1 [Example 25, 1-((1r,4s)-4-(isopropylamino)cyclohexyl)-6-methyl-5-(8-methyl-[1,2,4]triazolo[1,5-a]pyridin-6-yl)-1,3-dihydro-2H-benzo[d]imidazol-2-one] | 20.2
7 | Cc1cc2c(cc1-c1cc(C)c3ncnn3c1)[nH]c(=O)n2[C@@H]1CCCN(C2CCOCC2)C1 [Example 27, (R)-6-methyl-5-(8-methyl-[1,2,4]triazolo[1,5-a]pyridin-6-yl)-1-(1-(tetrahydro-2H-pyran-4-yl)piperidin-3-yl)-1,3-dihydro-2H-benzo[d]imidazol-2-one] | 79.5

Further molecules by falling IC50, results first:

Row | IC50 [nM] | Structure (SMILES)
8 | 235 | Cc1cc2c(cc1-c1cc(C)c3ncnn3c1)[nH]c(=O)n2[C@@H]1CCCN(CC(C)(C)C)C1 [Example 26, (R)-6-methyl-5-(8-methyl-[1,2,4]triazolo[1,5-a]pyridin-6-yl)-1-(1-neopentylpiperidin-3-yl)-1,3-dihydro-2H-benzo[d]imidazol-2-one]
9 | 27.3 | CCC(C)N1CCC[C@@H](n2c(=O)[nH]c3cc(-c4cc(C)c5ncnn5c4)c(C)cc32)C1 (stereo partly drawn) [Example 28, 1-((3R)-1-(sec-butyl)piperidin-3-yl)-6-methyl-5-(8-methyl-[1,2,4]triazolo[1,5-a]pyridin-6-yl)-1,3-dihydro-2H-benzo[d]imidazol-2-one]
10 | 12.4 | CCN[C@H]1CC[C@H](n2c(=O)[nH]c3cc(-c4cc(C)c5ncnn5c4)c(C)cc32)CC1 [Example 24, 1-((1r,4s)-4-(ethylamino)cyclohexyl)-6-methyl-5-(8-methyl-[1,2,4]triazolo[1,5-a]pyridin-6-yl)-1,3-dihydro-2H-benzo[d]imidazol-2-one]
11 | 4.77 | Cc1cc2c(cc1-c1cc(C)c3ncnn3c1)[nH]c(=O)n2[C@H]1CC[C@@H](NC(C)C)CC1 [Example 22, 1-((1s,4s)-4-(isopropylamino)cyclohexyl)-6-methyl-5-(8-methyl-[1,2,4]triazolo[1,5-a]pyridin-6-yl)-1,3-dihydro-2H-benzo[d]imidazol-2-one]
